From ChEMBL document CHEMBL4819019, “Design, synthesis, antibacterial activity and toxicity of novel quaternary ammonium compounds based on pyridoxine and fatty acids” (Eur J Med Chem, 2021)
Calls of active or inactive are those of the source. The rule behind the calls is not given here.

How the values were obtained:
[1] = Genotoxicity in Salmonella typhimurium TA1535/pSK1002 assessed as DNA-damage activity by measuring beta-galactosidase activity at 15 ug/ml measured by SOS-chromotest relative to solvent control; format: toxicity; details: salmonella enterica subsp. enterica serovar typhimurium; dose 15 µg/ml
Klebsiella pneumoniae = assay: Antibacterial activity against clinical isolate Klebsiella pneumoniae 1813 measured after 24 hrs by broth microdilution method; format: functional
Staphylococcus aureus [2] = assay: Antibacterial activity against clinical isolate Staphylococcus aureus 25 measured after 24 hrs by broth microdilution method; format: functional
Pseudomonas aeruginosa [3] = assay: Antibacterial activity against clinical isolate Pseudomonas aeruginosa 1945 measured after 24 hrs by broth microdilution method; format: functional
[4] = Genotoxicity in Salmonella typhimurium TA1537 assessed as number of revertant by Ames spot test relative to solvent control; format: toxicity; details: salmonella enterica subsp. enterica serovar typhimurium
[5] = Acute toxicity in C57BL/6CBA mouse assessed as necropsy measured at 2500 mg/kg treated as single topically measured after 14 days; format: organism-based; details: in vivo, topical_or_ocular, 336 h, time 14 day
[6] = Genotoxicity in Salmonella typhimurium TA1535/pSK1002 assessed as DNA-damage activity by measuring beta-galactosidase activity at 7.5 ug/ml measured by SOS-chromotest relative to solvent control; format: toxicity; details: salmonella enterica subsp. enterica serovar typhimurium; dose 7.5 µg/ml
[7] = Acute toxicity in C57BL/6CBA mouse assessed as pale liver at 2000 mg/kg, po after 7 days; format: organism-based; details: in vivo, 168 h, time 7 day
Enterococcus faecalis [8] = assay: Antibacterial activity against clinical isolate Enterococcus faecalis 3063 measured after 24 hrs by broth microdilution method; format: functional
[9] = system: Staphylococcus intermedius; assay: Antibacterial activity against clinical isolate methicillin-resistant Staphylococcus intermedius 1061 measured after 24 hrs by broth microdilution method; format: functional
Staphylococcus aureus [10] = assay: Antibacterial activity against Staphylococcus aureus ATCC 29213 measured after 24 hrs by broth microdilution method; format: functional
Acinetobacter sp. = assay: Antibacterial activity against clinical isolate Acinetobacter sp. 3 measured after 24 hrs by broth microdilution method; format: functional
[11] = Cytotoxicity against human mesenchymal stem cells assessed as cell viability measured after 72 hrs by MTT assay; format: cell-based
[12] = Genotoxicity in Salmonella typhimurium TA98 assessed as number of revertant by Ames spot test relative to solvent control; format: toxicity; details: salmonella enterica subsp. enterica serovar typhimurium
[13] = Acute toxicity in C57BL/6CBA mouse assessed as enlarged spleen at 2000 mg/kg, po after 7 days; format: organism-based; details: in vivo, 168 h, time 7 day
Pseudomonas aeruginosa [14] = assay: Antibiofilm activity against biofilm-embedded Pseudomonas aeruginosa assessed as reduction in log CFU at 1 to 32 times of MBC measured after 24 hrs by drop plate assay; format: functional, organism-based
[15] = system: Staphylococcus ureilyticus; assay: Antibacterial activity against clinical isolate Staphylococcus ureilyticus 1972 measured after 24 hrs by broth microdilution method; format: functional
Staphylococcus aureus [16] = assay: Antibacterial activity against clinical isolate methicillin-resistant Staphylococcus aureus 713 measured after 24 hrs by broth microdilution method; format: functional
Bacillus subtilis = assay: Antibacterial activity against Bacillus subtilis 168 measured after 24 hrs by broth microdilution method; format: functional
Moraxella = assay: Antibacterial activity against clinical isolate Moraxella 765 measured after 24 hrs by broth microdilution method; format: functional
[17] = Genotoxicity in Salmonella typhimurium TA1535 assessed as number of revertant by Ames spot test relative to solvent control; format: toxicity; details: salmonella enterica subsp. enterica serovar typhimurium
Klebsiella sp. = assay: Antibacterial activity against clinical isolate Klebsiella sp. 11 measured after 24 hrs by broth microdilution method; format: functional
[18] = Genotoxicity in Salmonella typhimurium TA1535/pSK1002 assessed as DNA-damage activity by measuring beta-galactosidase activity at 150 ug/ml measured by SOS-chromotest relative to solvent control; format: toxicity; details: salmonella enterica subsp. enterica serovar typhimurium; dose 150 µg/ml
Staphylococcus aureus [19] = assay: Antibacterial activity against clinical isolate methicillin-resistant Staphylococcus aureus 1065 measured after 24 hrs by broth microdilution method; format: functional
[20] = Genotoxicity in Salmonella typhimurium TA1535/pSK1002 assessed as DNA-damage activity by measuring beta-galactosidase activity at 75 ug/ml measured by SOS-chromotest relative to solvent control; format: toxicity; details: salmonella enterica subsp. enterica serovar typhimurium; dose 75 µg/ml
Staphylococcus aureus [21] = assay: Antibacterial activity against clinical isolate methicillin-resistant Staphylococcus aureus 1053 measured after 24 hrs by broth microdilution method; format: functional
[22] = Cytotoxicity against human HEK293 cells assessed as cell viability measured after 72 hrs by MTT assay; format: cell-based
Proteus sp. = assay: Antibacterial activity against clinical isolate Proteus sp. 17 measured after 24 hrs by broth microdilution method; format: functional; details: Proteus sp. (in: enterobacteria)
[23] = Genotoxicity in Salmonella typhimurium TA100 assessed as number of revertant by Ames spot test relative to solvent control; format: toxicity; details: salmonella enterica subsp. enterica serovar typhimurium
Pseudomonas aeruginosa [24] = assay: Antibacterial activity against Pseudomonas aeruginosa ATCC 27853 measured after 24 hrs by broth microdilution method; format: functional
[25] = Acute toxicity in C57BL/6CBA mouse assessed as death at 2000 mg/kg, po after 7 days; format: organism-based; details: in vivo, 168 h, time 7 day
[26] = Antibiofilm activity against biofilm-embedded Staphylococcus aureus/Pseudomonas aeruginosa assessed as reduction in viable cells upto 512 mg/L measured after 24 hrs by drop plate based dual species biofilm assay; format: functional, cell-based; details: dose mg/L <=512, time 24.0 hrs
[27] = Antibiofilm activity against biofilm-embedded Staphylococcus aureus/Escherichia coli assessed as reduction in viable cells upto 512 mg/L measured after 24 hrs by drop plate based dual species biofilm assay; format: functional, cell-based; details: dose mg/L <=512, time 24.0 hrs
Cell membrane [28] = assay: Induction of cell membrane damage in Escherichia coli assessed as decrease in flourescence measured for 35 mins with 5 min interval by DioC2(3) based flourescence method
Escherichia coli [29] = assay: Antibacterial activity against Escherichia coli assessed as fold increase in MIC after 4 passages by serial dilution method; format: functional, organism-based; details: time 24.0 hrs
Escherichia coli [30] = assay: Antibiofilm activity against biofilm-embedded Escherichia coli assessed as reduction in log CFU at 1 to 32 times of MBC measured after 24 hrs by drop plate assay; format: functional, organism-based
Escherichia coli [31] = assay: Antibacterial activity against clinical isolate Escherichia coli 718 measured after 24 hrs by broth microdilution method; format: functional
Serratia marcescens = assay: Antibacterial activity against clinical isolate Serratia marcescens 1966 measured after 24 hrs by broth microdilution method; format: functional
Micrococcus luteus [32] = assay: Antibacterial activity against Micrococcus luteus clinical isolate measured after 24 hrs by broth microdilution method; format: functional
Enterococcus faecalis [33] = assay: Antibacterial activity against clinical isolate Enterococcus faecalis 23 measured after 24 hrs by broth microdilution method; format: functional
[34] = Cytotoxicity against human skin fibroblasts assessed as cell viability measured after 72 hrs by MTT assay; format: cell-based, Fibroblast
Staphylococcus aureus [35] = assay: Antibiofilm activity against biofilm-embedded Staphylococcus aureus assessed as reduction in log CFU at 1 to 32 times of MBC measured after 24 hrs by drop plate assay; format: functional, organism-based
Escherichia coli [36] = assay: Antibacterial activity against Escherichia coli MG 1655 measured after 24 hrs by broth microdilution method; format: functional
[37] = Acute toxicity in topically treated C57BL/6CBA mouse assessed as death measured at 2500 mg/kg treated as single topically measured after 14 days; format: organism-based; details: in vivo, topical_or_ocular, 336 h, time 14 day
Cell membrane [38] = assay: Induction of cell membrane damage in Staphylococcus aureus assessed as decrease in flourescence measured for 35 mins with 5 min interval by DioC2(3) based flourescence method
Staphylococcus aureus [39] = assay: Antibacterial activity against clinical isolate methicillin-resistant Staphylococcus aureus 1131 measured after 24 hrs by broth microdilution method; format: functional
[40] = Acute toxicity in po dosed C57BL/6CBA mouse measured upto 7 days; format: organism-based; details: in vivo, time <=7 day
[41] = Acute toxicity in C57BL/6CBA mouse assessed as pale kidneys at 2000 mg/kg, po after 7 days; format: organism-based; details: in vivo, 168 h, time 7 day
[42] = Genotoxicity in Salmonella typhimurium TA1535/pSK1002 assessed as DNA-damage activity by measuring beta-galactosidase activity at 750 ug/ml measured by SOS-chromotest relative to solvent control; format: toxicity; details: salmonella enterica subsp. enterica serovar typhimurium; dose 750 µg/ml
[43] = system: Staphylococcus intermedius; assay: Antibacterial activity against clinical isolate methicillin-resistant Staphylococcus intermedius 1143 measured after 24 hrs by broth microdilution method; format: functional
[44] = Lipophilicity, logP of the compound; format: physicochemical; details: octanol/water
[45] = Acute toxicity in topically treated C57BL/6CBA mouse measured upto 14 days; details: in vivo, topical or ocular, time <=14 day
Pseudomonas sp. = assay: Antibacterial activity against clinical isolate Pseudomonas sp. 5 measured after 24 hrs by broth microdilution method; format: functional
Staphylococcus aureus [46] = assay: Antibacterial activity against Staphylococcus aureus assessed as fold increase in MIC after 8 passages by serial dilution method; format: functional, organism-based; details: time 24.0 hrs
Micrococcus luteus [47] = assay: Antibiofilm activity against biofilm-embedded Micrococcus luteus assessed as reduction in log CFU at 1 to 32 times of MBC measured after 24 hrs by drop plate assay; format: functional, organism-based
Staphylococcus aureus [48] = assay: Antibacterial activity against clinical isolate methicillin-resistant Staphylococcus aureus 983 measured after 24 hrs by broth microdilution method; format: functional

Structure (SMILES): CCCCCCCCCCCC(=O)NCC[N+](C)(C)Cc1cnc(C)c2c1COC(C)(CCC)O2.[Cl-] (stereo not drawn)
- Ratio [1]: 1.6
- MIC (Klebsiella pneumoniae): 16 µg/mL
- MIC (Staphylococcus aureus [2]): 2 µg/mL
- MIC (Pseudomonas aeruginosa [3]): 64 µg/mL
- Ratio [4]: 0.03
- Activity [5]: Non-Toxic
- Ratio [6]: 1.6
- Activity [7]: Toxic
- MIC (Enterococcus faecalis [8]): 2 µg/mL
- MIC [9]: 4 µg/mL
- MIC (Staphylococcus aureus [10]): 1 µg/mL
- MIC (Acinetobacter sp.): 32 µg/mL
- CC50 at 72 h [11]: 1.15 µg/mL
- Ratio [12]: 1.9
- Activity [13]: Toxic
- Activity (Pseudomonas aeruginosa [14]): Active
- MIC [15]: 64 µg/mL
- MIC (Staphylococcus aureus [16]): 4 µg/mL
- MIC (Bacillus subtilis): 2 µg/mL
- MIC (Moraxella): 16 µg/mL
- Ratio [17]: 0.5
- MIC (Klebsiella sp.): 16 µg/mL
- Ratio [18]: 0.5
- MIC (Staphylococcus aureus [19]): 2 µg/mL
- Ratio [20]: 0.7
- MIC (Staphylococcus aureus [21]): 2 µg/mL
- CC50 at 72 h [22]: 0.15 µg/mL
- MIC (Proteus sp.): > 64 µg/mL
- Ratio [23]: 1.1
- MIC (Pseudomonas aeruginosa [24]): 32 µg/mL
- Activity [25]: Toxic
- Activity [26]: inactive
- Activity [27]: inactive
- Activity (Cell membrane [28]): Dose-Dependent Effect
- Activity (Escherichia coli [29]): Toxic
- Activity (Escherichia coli [30]): Active
- MIC (Escherichia coli [31]): 8 µg/mL
- MIC (Serratia marcescens): 64 µg/mL
- MIC (Micrococcus luteus [32]): 2 µg/mL
- MIC (Enterococcus faecalis [33]): 2 µg/mL
- CC50 at 72 h [34]: 1.79 µg/mL
- Activity (Staphylococcus aureus [35]): Active
- MIC (Escherichia coli [36]): 4 µg/mL
- Activity [37]: Non-Toxic
- Activity (Cell membrane [38]): Dose-Dependent Effect
- MIC (Staphylococcus aureus [39]): 4 µg/mL
- LD50 at 168 h [40]: > 2000 mg/kg
- Activity [41]: Toxic
- Ratio [42]: 0.3
- MIC [43]: 4 µg/mL
- logP [44]: 1.35
- LD50 at 336 h [45]: > 2500 mg/kg
- MIC (Pseudomonas sp.): 32 µg/mL
- Activity (Staphylococcus aureus [46]): Active
- Activity (Micrococcus luteus [47]): Active
- MIC (Staphylococcus aureus [48]): 16 µg/mL

Structure (SMILES): CCCCCCCCCCCCCC(=O)NCCC[N+](C)(C)Cc1ccccc1.[Cl-] [MIRAMISTIN]
- MIC (Klebsiella pneumoniae): 16 µg/mL
- MIC (Staphylococcus aureus [2]): 16 µg/mL
- MIC (Pseudomonas aeruginosa [3]): 64 µg/mL
- MIC (Enterococcus faecalis [8]): 16 µg/mL
- MIC [9]: 64 µg/mL
- MIC (Staphylococcus aureus [10]): 2 µg/mL
- MIC (Acinetobacter sp.): > 64 µg/mL
- CC50 at 72 h [11]: 4.16 µg/mL
- MIC [15]: > 64 µg/mL
- MIC (Staphylococcus aureus [16]): 64 µg/mL
- MIC (Bacillus subtilis): 4 µg/mL
- MIC (Moraxella): > 64 µg/mL
- MIC (Klebsiella sp.): > 64 µg/mL
- MIC (Staphylococcus aureus [19]): 32 µg/mL
- MIC (Staphylococcus aureus [21]): 32 µg/mL
- CC50 at 72 h [22]: 6.08 µg/mL
- MIC (Proteus sp.): > 64 µg/mL
- MIC (Pseudomonas aeruginosa [24]): 1 µg/mL
- MIC (Escherichia coli [29]): Active
- MIC (Escherichia coli [31]): 64 µg/mL
- MIC (Serratia marcescens): > 64 µg/mL
- MIC (Micrococcus luteus [32]): 2 µg/mL
- MIC (Enterococcus faecalis [33]): 4 µg/mL
- CC50 at 72 h [34]: 7.21 µg/mL
- MIC (Escherichia coli [36]): 8 µg/mL
- MIC (Staphylococcus aureus [39]): 32 µg/mL
- LD50 at 168 h [40]: 1000 mg/kg
- MIC [43]: 64 µg/mL
- logP [44]: 2.43
- MIC (Pseudomonas sp.): > 64 µg/mL
- MIC (Staphylococcus aureus [46]): Active
- MIC (Staphylococcus aureus [48]): > 64 µg/mL
